Results reported in patent publication US4360665A, “4"-N-(Substituted)-apramycin antibiotic derivatives and intermediates therefor” (Eli Lilly and Company, priority 1981, dated 1982).
Converted amounts (≈) assume the structure as drawn. Where two headings read alike, the source gives them in different places.

What was measured:
[1] = system: Bordetella bronchiseptica 16; assay: MIC by standard agar dilution test; format: cell-based; settings: Bordetella bronchiseptica, 16, read-out: Minimum Inhibitory Concentration
Description: (§1) The antibacterial activity of the antibiotic compounds of this invention is illustrated by the following in vitro and in vivo test data obtained with representative compounds. In Tables I and II, the minimum inhibitory concentration (MIC) for representative compounds against a wide range of gram-positive and gram-negative bacteria are presented. The MIC values were obtained by the standard agar dilution test.

[2] = system: Citrobacter freundii CF17; assay: MIC by standard agar dilution test; format: cell-based; settings: Table 1, read-out: Minimum Inhibitory Concentration
Description: as §1

[3] = system: Enterobacter aerogenes C32; assay: MIC by standard agar dilution test; format: cell-based; settings: Klebsiella aerogenes, Table 1, read-out: Minimum Inhibitory Concentration
Description: as §1

[4] = system: Enterobacter aerogenes EB17; assay: MIC by standard agar dilution test; format: cell-based; settings: Klebsiella aerogenes, Table 1, read-out: Minimum Inhibitory Concentration
Description: as §1

[5] = system: Enterobacter aerogenes EB6; assay: MIC by standard agar dilution test; format: cell-based; settings: Klebsiella aerogenes; Table II; Enterobacter aerogenes EB6; agar dilution; read-out: Minimum Inhibitory Concentration
Description: as §1

[6] = system: Enterobacter aerogenes X68; assay: MIC by standard agar dilution test; format: cell-based; settings: Klebsiella aerogenes, Table 1, read-out: Minimum Inhibitory Concentration
Description: as §1

[7] = system: Enterobacter cloacae 265A; assay: MIC by standard agar dilution test; format: cell-based; settings: Table 1, read-out: Minimum Inhibitory Concentration
Description: as §1

[8] = system: Enterobacter cloacae EB24; assay: MIC by standard agar dilution test; format: cell-based; settings: Table II; Enterobacter cloacae EB24; agar dilution; read-out: Minimum Inhibitory Concentration
Description: as §1

Enterobacter cloacae EB5 = assay: MIC by standard agar dilution test; format: cell-based; settings: Table 1, read-out: Minimum Inhibitory Concentration
Description: as §1

[9] = system: Enterobacter cloacae EN453; assay: MIC by standard agar dilution test; format: cell-based; settings: Table II, read-out: Minimum Inhibitory Concentration
Description: as §1

Escherichia coli EC14 = assay: MIC by standard agar dilution test; format: cell-based; settings: Table 1, read-out: Minimum Inhibitory Concentration
Description: as §1

Escherichia coli N10 = assay: MIC by standard agar dilution test; format: cell-based; settings: Table 1, read-out: Minimum Inhibitory Concentration
Description: as §1

Escherichia coli TEM = assay: MIC by standard agar dilution test; format: cell-based; settings: read-out: Minimum Inhibitory Concentration
Description: as §1

[10] = system: Haemophilus influenzae HOLT; assay: MIC by standard agar dilution test; format: cell-based; settings: Table 1, read-out: Minimum Inhibitory Concentration
Description: as §1

[11] = system: Haemophilus influenzae R252; assay: MIC by standard agar dilution test; format: cell-based; settings: Table 1; Haemophilus influenzae R252; agar dilution; read-out: Minimum Inhibitory Concentration
Description: as §1

[12] = system: Klebsiella pneumoniae KAE; assay: MIC by standard agar dilution test; format: cell-based; settings: Table 1, read-out: Minimum Inhibitory Concentration
Description: as §1

[13] = system: Klebsiella pneumoniae KL2; assay: MIC by standard agar dilution test; format: cell-based; settings: Table II, read-out: Minimum Inhibitory Concentration
Description: as §1

[14] = system: Klebsiella pneumoniae X26; assay: MIC by standard agar dilution test; format: cell-based; settings: Table 1, read-out: Minimum Inhibitory Concentration
Description: as §1

Proteus inconstans PR33 = assay: MIC by standard agar dilution test; format: cell-based; settings: Providencia alcalifaciens, Table 1, read-out: Minimum Inhibitory Concentration
Description: as §1

Proteus inconstans PV25 = assay: MIC by standard agar dilution test; format: cell-based; settings: Providencia alcalifaciens, Table II, read-out: Minimum Inhibitory Concentration
Description: as §1

Proteus morganii PR15 = assay: MIC by standard agar dilution test; format: cell-based; settings: Morganella morganii, Table 1, read-out: Minimum Inhibitory Concentration
Description: as §1

Proteus morganii PR1 = assay: MIC by standard agar dilution test; format: cell-based; settings: Morganella morganii, Table II, read-out: Minimum Inhibitory Concentration
Description: as §1

Proteus rettgeri C24 = assay: MIC by standard agar dilution test; format: cell-based; settings: Providencia rettgeri, Table 1, read-out: Minimum Inhibitory Concentration
Description: as §1

Proteus rettgeri PR2 = assay: MIC by standard agar dilution test; format: cell-based; settings: Providencia rettgeri, Table II, read-out: Minimum Inhibitory Concentration
Description: as §1

Proteus rettgeri PR7 = assay: MIC by standard agar dilution test; format: cell-based; settings: Providencia rettgeri, Table 1, read-out: Minimum Inhibitory Concentration
Description: as §1

[15] = system: Pseudomonas aeruginosa 4276; assay: MIC by standard agar dilution test; format: cell-based; settings: Table II, read-out: Minimum Inhibitory Concentration
Description: as §1

[16] = system: Pseudomonas aeruginosa PI23; assay: MIC by standard agar dilution test; format: cell-based; settings: Table II, read-out: Minimum Inhibitory Concentration
Description: as §1

[17] = system: Pseudomonas aeruginosa Ps15; assay: MIC by standard agar dilution test; format: cell-based; settings: Table II, read-out: Minimum Inhibitory Concentration
Description: as §1

[18] = system: Pseudomonas aeruginosa Ps18; assay: MIC by standard agar dilution test; format: cell-based; settings: Table 1; Pseudomonas aeruginosa Ps18; agar dilution; read-out: Minimum Inhibitory Concentration
Description: as §1

[19] = system: Pseudomonas aeruginosa Ps25; assay: MIC by standard agar dilution test; format: cell-based; settings: Table II, read-out: Minimum Inhibitory Concentration
Description: as §1

[20] = system: Pseudomonas aeruginosa Ps9; assay: MIC by standard agar dilution test; format: cell-based; settings: Table II, read-out: Minimum Inhibitory Concentration
Description: as §1

[21] = system: Pseudomonas aeruginosa SF-2; assay: MIC by standard agar dilution test; format: cell-based; settings: SF2, Table II, read-out: Minimum Inhibitory Concentration
Description: as §1

[22] = system: Pseudomonas aeruginosa X239; assay: MIC by standard agar dilution test; format: cell-based
Description: as §1

[23] = system: Pseudomonas aeruginosa X48; assay: MIC by standard agar dilution test; format: cell-based; settings: Table II, read-out: Minimum Inhibitory Concentration
Description: as §1

[24] = system: Pseudomonas aeruginosa X528; assay: MIC by standard agar dilution test; format: cell-based
Description: as §1

[25] = system: Salmonella heidelberg X514; assay: MIC by standard agar dilution test; format: cell-based; settings: Salmonella enterica, Table 1, read-out: Minimum Inhibitory Concentration
Description: as §1

[26] = system: Salmonella typhimurium 1335; assay: MIC by standard agar dilution test; format: cell-based; settings: Salmonella enterica, Table 1, read-out: Minimum Inhibitory Concentration
Description: as §1

Serratia marcescens SE2 = assay: MIC by standard agar dilution test; format: cell-based; settings: Table II, read-out: Minimum Inhibitory Concentration
Description: as §1

Serratia marcescens SE3 = assay: MIC by standard agar dilution test; format: cell-based
Description: as §1

Serratia marcescens X99 = assay: MIC by standard agar dilution test; format: cell-based
Description: as §1

Shigella sonnei N9 = assay: MIC by standard agar dilution test; format: cell-based; settings: Table 1, read-out: Minimum Inhibitory Concentration
Description: as §1

[27] = system: Staphylococcus aureus S13E; assay: MIC by standard agar dilution test; format: cell-based; settings: read-out: Minimum Inhibitory Concentration
Description: as §1

[28] = system: Staphylococcus aureus V41; assay: MIC by standard agar dilution test; format: cell-based; settings: Table 1, read-out: Minimum Inhibitory Concentration
Description: as §1

[29] = system: Staphylococcus aureus X1.1; assay: MIC by standard agar dilution test; format: cell-based; settings: Table 1, read-out: Minimum Inhibitory Concentration
Description: as §1

[30] = system: Staphylococcus aureus X400; assay: MIC by standard agar dilution test; format: cell-based; settings: Table 1, read-out: Minimum Inhibitory Concentration
Description: as §1

[31] = system: Staphylococcus epidermidis EPI1; assay: MIC by standard agar dilution test; format: cell-based; settings: Table 1, read-out: Minimum Inhibitory Concentration
Description: as §1

[32] = system: Staphylococcus epidermidis EPI2; assay: MIC by standard agar dilution test; format: cell-based; settings: Table 1, read-out: Minimum Inhibitory Concentration
Description: as §1

[33] = system: Streptococcus group D 9960; assay: MIC by standard agar dilution test; format: cell-based; settings: D9960, Table 1, read-out: Minimum Inhibitory Concentration
Description: as §1

[34] = system: Streptococcus group D X66; assay: MIC by standard agar dilution test; format: cell-based; settings: DX66, Table 1, read-out: Minimum Inhibitory Concentration
Description: as §1

[35] = system: Streptococcus pneumoniae Park 1; assay: MIC by standard agar dilution test; format: cell-based; settings: PARK1, Table 1, read-out: Minimum Inhibitory Concentration
Description: as §1

[36] = system: Streptococcus pyogenes C203; assay: MIC by standard agar dilution test; format: cell-based; settings: Table 1, read-out: Minimum Inhibitory Concentration
Description: as §1

[37] = system: Staphlyococcus aureus 3055; assay: Subcutaneous therapy of experimental bacterial infection in mice; format: in vivo; settings: Mus musculus, sc, subcutaneous doses at 1 and 5 hours postinfection, read-out: Effective Dose (ED50), dose to protect 50 percent of the test animals
Experimental: Table III illustrates the effective dose (ED50, effective dose to protect 50 percent of the test animals) for a representative compound of this invention against an experimental bacterial infection in mice. | *mg/kg × 2 subcutaneous doses at 1 and 5 hours postinfection The ED50 value was determined as described by W. E. Wick et al., Journal of Bacteriology, 81 [No. 2], 233-235 (1961).

`CN[C@@H]1[C@@H](O[C@H]2O[C@H](CO)[C@@H](NC(C)=O)[C@H](O)[C@H]2O)O[C@H]2C[C@@H](N)[C@@H](O[C@H]3[C@H](O)[C@@H](O)[C@H](N)C[C@@H]3N)O[C@@H]2[C@@H]1O` [Test Compound 1, 4"-N-Acetylapramycin] was tested, and the MIC [1] was 128 µg/mL (≈ 220 µM), the MIC [2] was 32 µg/mL (≈ 55 µM) and the MIC [3] was 16 µg/mL (≈ 27.5 µM). It also gave an MIC [4] of 16 µg/mL (≈ 27.5 µM), an MIC [5] of 8 µg/mL (≈ 13.8 µM) and an MIC [6] of 16 µg/mL (≈ 27.5 µM). The MIC [7] was 32 µg/mL (≈ 55 µM), the MIC [8] was 8 µg/mL (≈ 13.8 µM) and the MIC (Enterobacter cloacae EB5) was 32 µg/mL (≈ 55 µM). For the same compound, the MIC [9] was 8 µg/mL (≈ 13.8 µM), the MIC (Escherichia coli EC14) was 16 µg/mL (≈ 27.5 µM) and the MIC (Escherichia coli N10) was 32 µg/mL (≈ 55 µM). It also gave an MIC (Escherichia coli TEM) of 16 µg/mL (≈ 27.5 µM), an MIC [10] of 16 µg/mL (≈ 27.5 µM) and an MIC [11] of 16 µg/mL (≈ 27.5 µM). The MIC [12] was 16 µg/mL (≈ 27.5 µM), the MIC [13] was 8 µg/mL (≈ 13.8 µM) and the MIC [14] was 16 µg/mL (≈ 27.5 µM). The MIC (Proteus inconstans PR33) was 16 µg/mL (≈ 27.5 µM), the MIC (Proteus inconstans PV25) was 8 µg/mL (≈ 13.8 µM) and the MIC (Proteus morganii PR15) was 32 µg/mL (≈ 55 µM). The MIC (Proteus morganii PR1) was 8 µg/mL (≈ 13.8 µM), the MIC (Proteus rettgeri C24) was 32 µg/mL (≈ 55 µM) and the MIC (Proteus rettgeri PR2) was 32 µg/mL (≈ 55 µM). It also gave an MIC (Proteus rettgeri PR7) of 32 µg/mL (≈ 55 µM), an MIC [15] of 32 µg/mL (≈ 55 µM) and an MIC [16] of over 128 µg/mL. For the same compound, the MIC [17] was 32 µg/mL (≈ 55 µM), the MIC [18] was 16 µg/mL (≈ 27.5 µM) and the MIC [19] was 32 µg/mL (≈ 55 µM). The MIC [20] was 128 µg/mL (≈ 220 µM), the MIC [21] was 64 µg/mL (≈ 110 µM) and the MIC ([22]; X239, Table 1, read-out: Minimum Inhibitory Concentration) was 64 µg/mL (≈ 110 µM). For the same compound, the MIC ([22]; X239, Table II, read-out: Minimum Inhibitory Concentration) was 32 µg/mL (≈ 55 µM), the MIC [23] was 32 µg/mL (≈ 55 µM) and the “Minimum Inhibitory Concentration” value ([24]; Table 1) was 64 µg/mL. The MIC ([24]; Table II, read-out: Minimum Inhibitory Concentration) was 64 µg/mL (≈ 110 µM), the MIC [25] was 32 µg/mL (≈ 55 µM) and the MIC [26] was 32 µg/mL (≈ 55 µM). The MIC (Serratia marcescens SE2) was 8 µg/mL (≈ 13.8 µM), the MIC (Serratia marcescens SE3; SE3, Table 1, read-out: Minimum Inhibitory Concentration) was 32 µg/mL (≈ 55 µM) and the MIC (Serratia marcescens SE3; SE3, Table II, read-out: Minimum Inhibitory Concentration) was 8 µg/mL (≈ 13.8 µM). For the same compound, the MIC (Serratia marcescens X99; X99, Table 1, read-out: Minimum Inhibitory Concentration) was 16 µg/mL (≈ 27.5 µM), the MIC (Serratia marcescens X99; X99, Table II, read-out: Minimum Inhibitory Concentration) was 4 µg/mL (≈ 6.88 µM) and the MIC (Shigella sonnei N9) was 32 µg/mL (≈ 55 µM). It also gave an MIC [27] of 64 µg/mL (≈ 110 µM), an MIC [28] of 64 µg/mL (≈ 110 µM) and an MIC [29] of 32 µg/mL (≈ 55 µM). It also gave an MIC [30] of 128 µg/mL (≈ 220 µM), an MIC [31] of 32 µg/mL (≈ 55 µM) and an MIC [32] of 64 µg/mL (≈ 110 µM). It also gave an MIC [33] of over 128 µg/mL, an MIC [34] of over 128 µg/mL and an MIC [35] of 128 µg/mL (≈ 220 µM). The MIC [36] was over 128 µg/mL and the ED50 [37] was 9.4 mg/kg.
